This note sets out measurements from ChEMBL document CHEMBL1201862, “PubChem BioAssay data set” (2004).

Test systems include OVCAR-8; HCT-116; DMS-273; SN12C; SK-MEL-28; NCI-H226; HCC 2998; K562; ACHN; 786-0; NCI-H460; HT-29; HOP-18; DLD-1; MDA-MB-231; SK-OV-3; SW-620; SK-MEL-5; MOLT-4; HOP-62.
Experiment in all cases: growth of human tumour cells (NCI), 48 h

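The compound was tested at five concentrations on cells cultured in 96-well plates, with a 48-hour exposure period. GI50: concentration for 50% inhibition of growth.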 Active and inactive are the calls of the source. No stated cut-off is given here; in the data, active = GI50 up to about 1.1 µM and inactive = higher.

Take `C(=N/NC1=NCCN1)/c1c2ccccc2c(/C=N\NC2=NCCN2)c2ccccc12`: the GI50 with OVCAR-8 was 0.252 µM (active); in the experiment on HCT-116, 0.0603 µM (active); in the experiment with DMS-273, 0.0759 µM (active); in the experiment with SN12C, 0.111 µM (active); in the experiment with SK-MEL-28, 0.259 µM (active); in the experiment with NCI-H226, 0.0966 µM (active). Besides, the GI50 in the experiment on HCC 2998 is 0.14 µM (active); in the experiment with K562 it was 0.0664 µM (active); with ACHN it was 0.221 µM (active); in the experiment with 786-0, 0.0991 µM (active); with NCI-H460, 0.0279 µM (active); in the experiment with HT-29 it was 0.0923 µM (active). In addition, the GI50 with HOP-18 was 0.168 µM (active); in the experiment on DLD-1, 2.83 µM (inactive); in the experiment with MDA-MB-231, 6.56 µM (inactive); in the experiment on SK-OV-3 it was 0.177 µM (active); in the experiment on SW-620 it was 0.113 µM (active); in the experiment on SK-MEL-5 it was 0.26 µM (active). Besides, the GI50 in the experiment with MOLT-4 was 0.0376 µM (active); in the experiment on HOP-62, 0.0966 µM (active).
Regarding `NC(CCCNc1ccc(O)cc1)C(=O)O` (centres undefined), the GI50 was 33.7 µM (inactive) in the experiment on OVCAR-8; 18.2 µM (inactive) in the experiment on HCT-116; > 100 µM (inactive) in the experiment with DMS-273; > 47.5 µM (inactive) in the experiment with SN12C; 42.6 µM (inactive) with SK-MEL-28; > 100 µM (inactive) with NCI-H226. Also, the GI50 in the experiment with HCC 2998 is 40.6 µM (inactive); with K562, 35.4 µM (inactive); in the experiment on ACHN, 26 µM (inactive); in the experiment with 786-0 it was 17.2 µM (inactive); in the experiment on NCI-H460 it was > 59.6 µM (inactive); with HT-29, 41.7 µM (inactive). Further, the GI50 with HOP-18 was > 76.4 µM (inactive); in the experiment with DLD-1, 20.4 µM (inactive); with SK-OV-3, > 100 µM (inactive); in the experiment on SW-620 it was 21.3 µM (inactive); with SK-MEL-5 it was 25.8 µM (inactive); in the experiment with MOLT-4, 25.4 µM (inactive). Moreover, the GI50 in the experiment with HOP-62 is > 80.2 µM (inactive).
For `CN(C)CC1CCCCCCCCCC(CN(C)C)C1=O` (centres undefined), the GI50 was > 32.3 µM (inactive) with OVCAR-8; > 26.7 µM (inactive) with HCT-116; > 100 µM (inactive) with DMS-273; > 25.4 µM (inactive) in the experiment with SN12C; 32.1 µM (inactive) with SK-MEL-28; > 43 µM (inactive) in the experiment on NCI-H226. The GI50 in the experiment with HCC 2998 was > 100 µM (inactive); in the experiment on ACHN, > 31 µM (inactive); in the experiment with 786-0, > 20.6 µM (inactive); in the experiment on NCI-H460 it was > 36.8 µM (inactive); in the experiment on HT-29, 14.3 µM (inactive); in the experiment with HOP-18, > 100 µM (inactive). In addition, the GI50 in the experiment with DLD-1 was > 100 µM (inactive); in the experiment with MDA-MB-231 it was 17.3 µM (inactive); in the experiment with SK-OV-3, > 28.8 µM (inactive); in the experiment on SW-620, > 21.2 µM (inactive); in the experiment on SK-MEL-5, 17.3 µM (inactive); in the experiment on MOLT-4 it was 7.03 µM (inactive). In addition, in the experiment on HOP-62, the GI50 is > 44 µM (inactive).
Regarding `CCC1=CC2CN3CCc4c([nH]c5ccccc45)C(C(=O)OC)(C2)C13` (centres undefined), the GI50 with OVCAR-8 was 11 µM (inactive); in the experiment with HCT-116, 35.6 µM (inactive); with DMS-273 it was 48.6 µM (inactive); in the experiment with SN12C, 47.4 µM (inactive); with SK-MEL-28, 53.3 µM (inactive); in the experiment on NCI-H226, 11 µM (inactive). The GI50 with HCC 2998 was 48.3 µM (inactive); in the experiment with K562, 39.2 µM (inactive); with NCI-H460 it was 52.6 µM (inactive); with HT-29, 22.7 µM (inactive); in the experiment with HOP-18, 47.9 µM (inactive); in the experiment with DLD-1, 45.9 µM (inactive). The GI50 with SK-OV-3 is 69.3 µM (inactive); with SW-620, 41.9 µM (inactive); with SK-MEL-5 it was 40.7 µM (inactive); in the experiment on MOLT-4, 39.8 µM (inactive); in the experiment with HOP-62, 43.6 µM (inactive).
Turning to `NC1=NC(c2ccccc2)CC(c2cc(Cl)cc(Br)c2O)=N1` (centres undefined), the GI50 was 17.1 µM (inactive) in the experiment with OVCAR-8; 12.1 µM (inactive) in the experiment on HCT-116; 7.55 µM (inactive) in the experiment on DMS-273; 13.4 µM (inactive) in the experiment with SN12C; 13.1 µM (inactive) in the experiment with SK-MEL-28; 18.9 µM (inactive) in the experiment on NCI-H226. The GI50 in the experiment on HCC 2998 is 13.6 µM (inactive); in the experiment on K562, 3 µM (inactive); with ACHN, 16.9 µM (inactive); in the experiment with 786-0, 16.9 µM (inactive); in the experiment on NCI-H460, 12.4 µM (inactive); in the experiment on HT-29 it was 13.5 µM (inactive). For the same molecule, the GI50 in the experiment on HOP-18 is 17.7 µM (inactive); in the experiment on DLD-1, 12 µM (inactive); in the experiment with SK-OV-3, 24.7 µM (inactive); with SW-620, 8.2 µM (inactive); with SK-MEL-5 it was 11.7 µM (inactive); in the experiment on MOLT-4 it was 3.1 µM (inactive). In addition, the GI50 in the experiment with HOP-62 is 10.4 µM (inactive).
`COc1ccc2[nH]c3c(C)c4c(c(C)c3c2c1)CN(C)C=C4`: the GI50 with OVCAR-8 was 0.309 µM (active); with HCT-116, 2.61 µM (inactive); with DMS-273 it was 0.75 µM (active); in the experiment with SN12C it was 0.164 µM (active); in the experiment with SK-MEL-28, 3.44 µM (inactive); with NCI-H226, 0.267 µM (active). Further, the GI50 in the experiment on HCC 2998 was 2.71 µM (inactive); in the experiment on K562, 3.44 µM (inactive); in the experiment with ACHN, 13.2 µM (inactive); in the experiment on 786-0, 0.191 µM (active); in the experiment with NCI-H460, 1.32 µM (inactive); with HT-29, 3.93 µM (inactive). For the same molecule, the GI50 was 7.38 µM (inactive) in the experiment on HOP-18; 1.92 µM (inactive) in the experiment on DLD-1; 12.1 µM (inactive) with MDA-MB-231; 7.23 µM (inactive) in the experiment with SK-OV-3; 1.35 µM (inactive) in the experiment with SW-620; 1.98 µM (inactive) with SK-MEL-5. Further, the results for the GI50 in the experiment on MOLT-4 and in the experiment on HOP-62 were 0.65 µM (active) and 0.679 µM (active), respectively.
